The values that follow come from ChEMBL document CHEMBL2385069, “Thiourea derivatives incorporating a hippuric acid moiety: synthesis and evaluation of antibacterial and antifungal activities” (2013).

As usually defined, the MIC is the lowest concentration that inhibits growth of the organism. Higher therefore signals a less susceptible organism.

≈ marks a conversion by molar mass, not a printed value.

Common to all, as to type: functional
Assay [1] relates to Saccharomyces cerevisiae. Put plainly: Antifungal activity against Saccharomyces cerevisiae assessed as diameter of inhibition zone at 1 mg/ml after 24 hrs by agar well diffusion method. Particulars: read-out: DIZ. On the technique in general: In agar diffusion tests the substance spreads into inoculated agar from a disc or well.
For assay [2], the system named is Pseudomonas aeruginosa. Put plainly: Antibacterial activity against Pseudomonas aeruginosa ATCC 27953 assessed as diameter of inhibition zone at 1 mg/ml after 24 hrs by agar well diffusion method. The conditions noted are these: ATCC 27953, 24 h, read-out: DIZ.
Assay [3] relates to Candida albicans. Put plainly: Antifungal activity against Candida albicans NRRLY-477 assessed as diameter of inhibition zone at 1 mg/ml after 24 hrs by agar well diffusion method. Particulars: NRRLY-477, 24 h, read-out: DIZ.
The test system of assay [4] is Escherichia coli. The assay can be described thus: Antibacterial activity against Escherichia coli ATCC 25922 assessed as diameter of inhibition zone at 1 mg/ml after 24 hrs by agar well diffusion method. The conditions noted are these: ATCC 25922, 24 h, read-out: DIZ.
Assay [5] concerns Micrococcus luteus. The assay can be described thus: Antibacterial activity against Sarcina lutea assessed as diameter of inhibition zone at 1 mg/ml after 24 hrs by agar well diffusion method. The conditions noted are these: read-out: DIZ.
Assay [6] deals with Proteus vulgaris. The assay can be described thus: Antibacterial activity against Proteus vulgaris assessed as diameter of inhibition zone at 1 mg/ml after 24 hrs by agar well diffusion method. Particulars: read-out: DIZ.
Assay [7] deals with Priestia megaterium. The assay can be described thus: Antibacterial activity against Bacillus megaterium ATCC 9885 assessed as diameter of inhibition zone at 1 mg/ml after 24 hrs by agar well diffusion method. The conditions noted are these: ATCC 9885, 24 h, read-out: DIZ.
In assay [8] the test system is Staphylococcus aureus. The assay can be described thus: Antibacterial activity against Staphylococcus aureus ATCC 29213 assessed as diameter of inhibition zone at 1 mg/ml after 24 hrs by agar well diffusion method. The conditions noted are these: ATCC 29213, 24 h, read-out: DIZ.
Assay [9] has as its system Klebsiella pneumoniae. The assay can be described thus: Antibacterial activity against Klebsiella pneumoniae ATCC 13883 assessed as diameter of inhibition zone at 1 mg/ml after 24 hrs by agar well diffusion method. Particulars: ATCC 13883, 24 h, read-out: DIZ.
In assay [10] the test system is Bacillus subtilis. The assay can be described thus: Antibacterial activity against Bacillus subtilis ATCC 6633 assessed as diameter of inhibition zone at 1 mg/ml after 24 hrs by agar well diffusion method. Particulars: ATCC 6633, 24 h, read-out: DIZ.
The subject of assay [11] is Klebsiella pneumoniae. Put plainly: Antibacterial activity against Klebsiella pneumoniae ATCC 13883 after 24 hrs by two fold serial dilution technique. Particulars: ATCC 13883, 24 h.
In assay [12] the test system is Priestia megaterium. The assay can be described thus: Antibacterial activity against Bacillus megaterium ATCC 9885 after 24 hrs by two fold serial dilution technique. The conditions noted are these: ATCC 9885, 24 h.
Assay [13] deals with Escherichia coli. Put plainly: Antibacterial activity against Escherichia coli ATCC 25922 after 24 hrs by two fold serial dilution technique. The conditions noted are these: ATCC 25922, 24 h.
The subject of assay [14] is Saccharomyces cerevisiae. The assay can be described thus: Antifungal activity against Saccharomyces cerevisiae after 24 hrs by two fold serial dilution technique.
Assay [15] has as its system Candida albicans. Put plainly: Antifungal activity against Candida albicans NRRLY-477 after 24 hrs by two fold serial dilution technique. The conditions noted are these: NRRLY-477, 24 h.
In assay [16] the test system is Micrococcus luteus. Put plainly: Antibacterial activity against Sarcina lutea after 24 hrs by two fold serial dilution technique.
Assay [17] relates to Staphylococcus aureus. The assay can be described thus: Antibacterial activity against Staphylococcus aureus ATCC 29213 after 24 hrs by two fold serial dilution technique. The conditions noted are these: ATCC 29213, 24 h.
Assay [18] deals with Proteus vulgaris. Put plainly: Antibacterial activity against Proteus vulgaris after 24 hrs by two fold serial dilution technique.
Assay [19] concerns Pseudomonas aeruginosa. Put plainly: Antibacterial activity against Pseudomonas aeruginosa ATCC 27953 after 24 hrs by two fold serial dilution technique. The conditions noted are these: ATCC 27953, 24 h.
The test system of assay [20] is Bacillus subtilis. The assay can be described thus: Antibacterial activity against Bacillus subtilis ATCC 6633 after 24 hrs by two fold serial dilution technique. Particulars: ATCC 6633, 24 h.
For assay [21], the system named is Candida albicans. Put plainly: Ratio of ketoconazole MIC to compound MIC for Candida albicans NRRLY-477.
The test system of assay [22] is Bacillus subtilis. Put plainly: Ratio of Ciprofloxacin MIC to compound MIC for Bacillus subtilis ATCC 6633.

As for `CCCCCCNC(=S)Nc1ccc(C(=O)NCC(=O)O)cc1`, the zone of inhibition at 1000 µg/mL came to 9 mm in assay [1]; 0 mm in [2]; 0 mm in assay [3]; 11 mm in [4]; 24 mm in [5]; 0 mm in assay [6]. For the same molecule, the zone of inhibition at 1000 µg/mL in assay [7] is 23 mm; in assay [8] it was 0 mm; in [9], 12 mm; in assay [10], 9 mm.
Regarding `O=C(O)CNC(=O)c1ccc(NC(=S)Nc2ccccc2)cc1`, the zone of inhibition at 1000 µg/mL in assay [1] amounted to 0 mm; in assay [2], 12 mm; in assay [3], 0 mm; in assay [4], 19 mm; in assay [5] it was 0 mm; in assay [6] it was 0 mm. Further, the zone of inhibition at 1000 µg/mL in assay [7] was 13 mm; in [8] it was 0 mm; in assay [9], 0 mm; in assay [10] it was 17 mm.
For `Cc1ccc(NC(=S)Nc2ccc(C(=O)NCC(=O)O)cc2)cc1`, the zone of inhibition at 1000 µg/mL in assay [1] is 0 mm; in [2] it was 0 mm; in assay [3], 18 mm; in assay [4], 9 mm; in [5], 25 mm; in assay [6] it was 20 mm. For the same molecule, the zone of inhibition at 1000 µg/mL in [7] amounted to 19 mm; in [8], 0 mm; in [9], 0 mm; in assay [10] it was 0 mm.
In the case of `O=C(O)CNC(=O)c1ccc(NC(=S)Nc2cccc(F)c2)cc1`, the zone of inhibition at 1000 µg/mL in assay [1] stood at 17 mm; in assay [2], 21 mm; in assay [3] it was 22 mm; in assay [4] it was 20 mm; in assay [5], 20 mm; in [6] it was 25 mm. In addition, the zone of inhibition at 1000 µg/mL in [7] came out at 27 mm; in assay [8] it was 20 mm; in assay [9], 23 mm; in assay [10], 18 mm. For the same molecule, the minimum inhibitory concentration (MIC) amounted to 12.5 µg/mL (≈ 36 µM) in assay [11]; 12.5 µg/mL (≈ 36 µM) in assay [12]; 12.5 µg/mL (≈ 36 µM) in assay [13]; 25 µg/mL (≈ 72 µM) in [14]; 12.5 µg/mL (≈ 36 µM) in assay [15]; 12.5 µg/mL (≈ 36 µM) in [16]. For the same molecule, the minimum inhibitory concentration (MIC) in assay [17] is 50 µg/mL (≈ 144 µM); in [18], 12.5 µg/mL (≈ 36 µM); in [19], 12.5 µg/mL (≈ 36 µM); in assay [20], 12.5 µg/mL (≈ 36 µM).
For the molecule `O=C(O)CNC(=O)c1ccc(NC(=S)Nc2ccc(C(=O)NCC(=O)O)cc2)cc1`, the zone of inhibition at 1000 µg/mL in assay [1] was found to be 18 mm; in assay [2], 22 mm; in assay [3], 19 mm; in assay [4] it was 22 mm; in [5], 15 mm; in [6] it was 21 mm. Also, the zone of inhibition at 1000 µg/mL in assay [7] amounted to 17 mm; in assay [8], 22 mm; in assay [9], 23 mm; in [10], 18 mm. For the same molecule, the MIC in assay [11] worked out at 12.5 µg/mL (≈ 29 µM); in assay [12], 12.5 µg/mL (≈ 29 µM); in [13], 12.5 µg/mL (≈ 29 µM); in assay [14], 50 µg/mL (≈ 116 µM); in assay [15], 12.5 µg/mL (≈ 29 µM); in assay [16] it was 25 µg/mL (≈ 58.1 µM). Also, the MIC in [17] turned out to be 50 µg/mL (≈ 116 µM); in [18], 25 µg/mL (≈ 58.1 µM); in assay [19], 12.5 µg/mL (≈ 29 µM); in assay [20], 50 µg/mL (≈ 116 µM).
Turning to `O=C(O)CNC(=O)c1ccc(NC(=S)Nc2ccc(NC(=S)Nc3ccc(C(=O)NCC(=O)O)cc3)cc2)cc1`, the zone of inhibition at 1000 µg/mL in assay [1] stood at 26 mm; in [2] it was 22 mm; in assay [3], 26 mm; in [4], 24 mm; in [5] it was 10 mm; in assay [6] it was 18 mm. Moreover, the zone of inhibition at 1000 µg/mL in assay [7] worked out at 24 mm; in assay [8], 20 mm; in assay [9], 16 mm; in [10], 31 mm. Further, the MIC in [11] turned out to be 12.5 µg/mL (≈ 21.5 µM); in [12], 12.5 µg/mL (≈ 21.5 µM); in assay [13], 25 µg/mL (≈ 43.1 µM); in assay [14], 25 µg/mL (≈ 43.1 µM); in assay [15], 12.5 µg/mL (≈ 21.5 µM); in [16], 50 µg/mL (≈ 86.1 µM). The MIC in assay [17] was 50 µg/mL (≈ 86.1 µM); in assay [18], 25 µg/mL (≈ 43.1 µM); in assay [19], 12.5 µg/mL (≈ 21.5 µM); in [20], 12.5 µg/mL (≈ 21.5 µM).
For the molecule `Nc1n[nH]c(NC(=S)Nc2ccc(C(=O)NCC(=O)O)cc2)c1/N=N/c1ccc(Cl)cc1`, the zone of inhibition at 1000 µg/mL in [1] was 25 mm; in [2], 28 mm; in [3], 30 mm; in assay [4], 28 mm; in assay [5] it was 30 mm; in [6] it was 28 mm. Further, the zone of inhibition at 1000 µg/mL was 27 mm in [7], 28 mm in [8], 22 mm in assay [9] and 32 mm in assay [10]. The minimal inhibitory concentration (MIC) in assay [11] was determined as 12.5 µg/mL (≈ 26.4 µM); in assay [12], 6.25 µg/mL (≈ 13.2 µM); in [13], 6.25 µg/mL (≈ 13.2 µM); in assay [14] it was 12.5 µg/mL (≈ 26.4 µM); in [15], 3.12 µg/mL (≈ 6.6 µM); in assay [16], 12.5 µg/mL (≈ 26.4 µM). The minimal inhibitory concentration (MIC) was found to be 6.25 µg/mL (≈ 13.2 µM) in [17], 6.25 µg/mL (≈ 13.2 µM) in assay [18], 12.5 µg/mL (≈ 26.4 µM) in [19] and 3.12 µg/mL (≈ 6.6 µM) in assay [20]. In addition, the Ratio in assay [21] and in assay [22] was 2 each time.
For the molecule `O=C(O)CNC(=O)c1ccc(NC(=S)NNS(=O)(=O)c2ccccc2)cc1`, the zone of inhibition at 1000 µg/mL in assay [1] is 24 mm; in [2] it was 23 mm; in assay [3], 32 mm; in [4], 29 mm; in assay [5] it was 20 mm; in [6], 20 mm. In addition, the zone of inhibition at 1000 µg/mL in [7] was found to be 31 mm; in assay [8], 32 mm; in assay [9] it was 25 mm; in [10], 30 mm. The minimum inhibitory concentration (MIC) in assay [11] is 12.5 µg/mL (≈ 30.6 µM); in [12] it was 3.12 µg/mL (≈ 7.64 µM); in [13], 6.25 µg/mL (≈ 15.3 µM); in [14], 12.5 µg/mL (≈ 30.6 µM); in assay [15], 3.12 µg/mL (≈ 7.64 µM); in assay [16], 12.5 µg/mL (≈ 30.6 µM). In addition, the MIC turned out to be 6.25 µg/mL (≈ 15.3 µM) in assay [17], 12.5 µg/mL (≈ 30.6 µM) in assay [18], 12.5 µg/mL (≈ 30.6 µM) in assay [19] and 3.12 µg/mL (≈ 7.64 µM) in [20]. Further, the Ratio in [21] and in assay [22] was 2 in each case.
With `CCCCNC(=S)Nc1ccc(C(=O)NCC(=O)O)cc1`, the zone of inhibition at 1000 µg/mL worked out at 18 mm in assay [1]; 22 mm in [2]; 10 mm in assay [3]; 22 mm in assay [4]; 9 mm in assay [5]; 21 mm in assay [6]. Besides, the zone of inhibition at 1000 µg/mL in assay [7] was 16 mm; in assay [8], 22 mm; in [9], 20 mm; in [10], 13 mm.
